We go through four compounds from ChEMBL document CHEMBL1201862, “PubChem BioAssay data set” (2004).

Structures are written as SMILES.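 Dose response: 5 concentrations. Exposure: 48 h. Format: 96-well plates. Endpoint: linear interpolation; highest concentration if not reached. At the GI50, growth is halved.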 The source made the active and inactive calls. Cut-off read from the data, not from the text of the source: active = GI50 up to about 1.1 µM and inactive = higher. Where only a bound is given, the exact number is not on record here.

Some test systems named below: NCI-H460; SNB-19; HOP-92; COLO 205; MDA-N; CCRF-CEM; OVCAR-5; NCI-H226; KM12; HOP-62; HL-60; A498; ACHN; SF-295; EKVX; MOLT-4; SF-539; MDA-MB-435; K562; MCF7.
Assay in all cases: growth of human tumour cells (NCI), 48 h

As for `O=C(CN1CCN(Cc2ccccc2)CC1)N1CCCn2c1nc1ccccc1c2=O`, the GI50 with NCI-H460 was > 100 µM (inactive); in the test on SNB-19, > 100 µM (inactive); in the test with HOP-92, 4.58 µM (inactive); in the test with COLO 205 it was > 100 µM (inactive); in the test with MDA-N, > 100 µM (inactive); in the test with CCRF-CEM, > 100 µM (inactive). Besides, the GI50 in the test with OVCAR-5 is > 100 µM (inactive); with NCI-H226, 29.2 µM (inactive); with KM12, > 100 µM (inactive); in the test with HOP-62, > 100 µM (inactive); with HL-60 it was > 100 µM (inactive); with A498, > 100 µM (inactive). In addition, the GI50 in the test on ACHN, with SF-295, in the test with EKVX, in the test with MOLT-4, in the test on SF-539 and in the test on MDA-MB-435 was > 100 µM (inactive) throughout. Also, the GI50 in the test on K562 and with MCF7 was > 100 µM (inactive) each time.

As for `CC(=O)C(=NNc1ccc(-n2c(C)nc3ccccc3c2=O)cc1)C(C)=O`, the GI50 with NCI-H460, in the test with SNB-19, in the test on HOP-92, in the test with COLO 205, in the test on MDA-N and in the test on CCRF-CEM was > 100 µM (inactive) throughout. The GI50 with OVCAR-5 is > 100 µM (inactive); in the test with NCI-H226 it was 80.2 µM (inactive); in the test on KM12, 55 µM (inactive); in the test on HOP-62 it was > 100 µM (inactive); with HL-60 it was > 100 µM (inactive); in the test on A498, > 100 µM (inactive). In addition, the GI50 was > 100 µM (inactive) in the test on ACHN; > 100 µM (inactive) in the test with SF-295; > 100 µM (inactive) in the test with EKVX; 22.9 µM (inactive) in the test with MOLT-4; > 100 µM (inactive) in the test on SF-539; > 100 µM (inactive) in the test with MDA-MB-435. In addition, the GI50 in the test on K562 and with MCF7 was > 100 µM (inactive) throughout.

In the case of `O=C1OC(c2ccc(O)c(-c3ccccc3)c2)(c2ccc(O)c(-c3ccccc3)c2)c2c(Cl)c(Cl)c(Cl)c(Cl)c21`, the GI50 in the test on NCI-H460, in the test on SNB-19, in the test with HOP-92, in the test on COLO 205, with MDA-N and with CCRF-CEM was > 100 µM (inactive) throughout. Further, the GI50 is > 100 µM (inactive) in the test on OVCAR-5; > 100 µM (inactive) in the test on NCI-H226; > 100 µM (inactive) in the test on KM12; > 100 µM (inactive) in the test with HOP-62; 0.177 µM (active) in the test on HL-60; > 100 µM (inactive) in the test on A498. Moreover, the GI50 with ACHN, in the test with SF-295, with EKVX, in the test on MOLT-4, in the test with SF-539 and in the test with MDA-MB-435 was > 100 µM (inactive) throughout. Further, the GI50 in the test on K562 and in the test with MCF7 was > 100 µM (inactive) throughout.

Regarding `C#C/C=C/CC1OC(C(Br)CC)CC(Br)C2CC1O2` (stereo not given), the GI50 in the test with NCI-H460 was > 100 µM (inactive); in the test with SNB-19, > 100 µM (inactive); with HOP-92, 22.8 µM (inactive); in the test on COLO 205, 82 µM (inactive); with MDA-N it was 80.5 µM (inactive); in the test with CCRF-CEM, 38.6 µM (inactive). Further, the GI50 in the test on OVCAR-5 was > 100 µM (inactive); with NCI-H226 it was > 100 µM (inactive); in the test with KM12, 60.5 µM (inactive); in the test on HOP-62 it was 85.7 µM (inactive); in the test with HL-60, 34.1 µM (inactive); in the test on A498 it was > 100 µM (inactive). The GI50 was 39.4 µM (inactive) in the test with ACHN; > 100 µM (inactive) in the test with SF-295; 40.6 µM (inactive) in the test on EKVX; 29.4 µM (inactive) in the test with MOLT-4; > 100 µM (inactive) with SF-539; 86.5 µM (inactive) with MDA-MB-435. In addition, the GI50 was 29 µM (inactive) in the test on K562 and 40.2 µM (inactive) in the test with MCF7.
